Assay results: patent US20250114345A1, “COMPOUNDS AND COMPOSITIONS AS CBP/P300 DEGRADERS AND USES THEREOF” (Oncopia Therapeutics, Inc. d/b/a/ SK Life Science Labs, priority 2023, published 2025)

Assays:
CBP = biological target: T1, CBP (Homo sapiens, UniProt Q92793); test: CBP degradation, HiBit technology in A549 CBP HiBit cells (24 h); format: cell-based; conditions: 24 hrs post treatment
T1 construct: host or cells: A549 CBP HiBit cells
Method in brief: (§1)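 Degradation potency and Dmax came from luminescence after 10 min room-temperature lysis with HiBit detection buffer. Beforehand, HiBit-tagged A549 lines received serial compound dilutions (10 mM DMSO stocks) at 37 °C, 5% CO2. CBP cells were read at 24 h, p300 cells at 2 h.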

p300 = biological target: T2, p300 (Homo sapiens, UniProt Q09472); test: P300 degradation, HiBit technology in A549 P300 HiBit cells (2 h); format: cell-based; conditions: 2 hrs post treatment; for Dmax: A549, A549 P300 HiBit cells; for DC50: A549 P300 HiBit cells
T2 construct: host or cells: A549 P300 HiBit cells
T2 sequence (Q09472 whole entry): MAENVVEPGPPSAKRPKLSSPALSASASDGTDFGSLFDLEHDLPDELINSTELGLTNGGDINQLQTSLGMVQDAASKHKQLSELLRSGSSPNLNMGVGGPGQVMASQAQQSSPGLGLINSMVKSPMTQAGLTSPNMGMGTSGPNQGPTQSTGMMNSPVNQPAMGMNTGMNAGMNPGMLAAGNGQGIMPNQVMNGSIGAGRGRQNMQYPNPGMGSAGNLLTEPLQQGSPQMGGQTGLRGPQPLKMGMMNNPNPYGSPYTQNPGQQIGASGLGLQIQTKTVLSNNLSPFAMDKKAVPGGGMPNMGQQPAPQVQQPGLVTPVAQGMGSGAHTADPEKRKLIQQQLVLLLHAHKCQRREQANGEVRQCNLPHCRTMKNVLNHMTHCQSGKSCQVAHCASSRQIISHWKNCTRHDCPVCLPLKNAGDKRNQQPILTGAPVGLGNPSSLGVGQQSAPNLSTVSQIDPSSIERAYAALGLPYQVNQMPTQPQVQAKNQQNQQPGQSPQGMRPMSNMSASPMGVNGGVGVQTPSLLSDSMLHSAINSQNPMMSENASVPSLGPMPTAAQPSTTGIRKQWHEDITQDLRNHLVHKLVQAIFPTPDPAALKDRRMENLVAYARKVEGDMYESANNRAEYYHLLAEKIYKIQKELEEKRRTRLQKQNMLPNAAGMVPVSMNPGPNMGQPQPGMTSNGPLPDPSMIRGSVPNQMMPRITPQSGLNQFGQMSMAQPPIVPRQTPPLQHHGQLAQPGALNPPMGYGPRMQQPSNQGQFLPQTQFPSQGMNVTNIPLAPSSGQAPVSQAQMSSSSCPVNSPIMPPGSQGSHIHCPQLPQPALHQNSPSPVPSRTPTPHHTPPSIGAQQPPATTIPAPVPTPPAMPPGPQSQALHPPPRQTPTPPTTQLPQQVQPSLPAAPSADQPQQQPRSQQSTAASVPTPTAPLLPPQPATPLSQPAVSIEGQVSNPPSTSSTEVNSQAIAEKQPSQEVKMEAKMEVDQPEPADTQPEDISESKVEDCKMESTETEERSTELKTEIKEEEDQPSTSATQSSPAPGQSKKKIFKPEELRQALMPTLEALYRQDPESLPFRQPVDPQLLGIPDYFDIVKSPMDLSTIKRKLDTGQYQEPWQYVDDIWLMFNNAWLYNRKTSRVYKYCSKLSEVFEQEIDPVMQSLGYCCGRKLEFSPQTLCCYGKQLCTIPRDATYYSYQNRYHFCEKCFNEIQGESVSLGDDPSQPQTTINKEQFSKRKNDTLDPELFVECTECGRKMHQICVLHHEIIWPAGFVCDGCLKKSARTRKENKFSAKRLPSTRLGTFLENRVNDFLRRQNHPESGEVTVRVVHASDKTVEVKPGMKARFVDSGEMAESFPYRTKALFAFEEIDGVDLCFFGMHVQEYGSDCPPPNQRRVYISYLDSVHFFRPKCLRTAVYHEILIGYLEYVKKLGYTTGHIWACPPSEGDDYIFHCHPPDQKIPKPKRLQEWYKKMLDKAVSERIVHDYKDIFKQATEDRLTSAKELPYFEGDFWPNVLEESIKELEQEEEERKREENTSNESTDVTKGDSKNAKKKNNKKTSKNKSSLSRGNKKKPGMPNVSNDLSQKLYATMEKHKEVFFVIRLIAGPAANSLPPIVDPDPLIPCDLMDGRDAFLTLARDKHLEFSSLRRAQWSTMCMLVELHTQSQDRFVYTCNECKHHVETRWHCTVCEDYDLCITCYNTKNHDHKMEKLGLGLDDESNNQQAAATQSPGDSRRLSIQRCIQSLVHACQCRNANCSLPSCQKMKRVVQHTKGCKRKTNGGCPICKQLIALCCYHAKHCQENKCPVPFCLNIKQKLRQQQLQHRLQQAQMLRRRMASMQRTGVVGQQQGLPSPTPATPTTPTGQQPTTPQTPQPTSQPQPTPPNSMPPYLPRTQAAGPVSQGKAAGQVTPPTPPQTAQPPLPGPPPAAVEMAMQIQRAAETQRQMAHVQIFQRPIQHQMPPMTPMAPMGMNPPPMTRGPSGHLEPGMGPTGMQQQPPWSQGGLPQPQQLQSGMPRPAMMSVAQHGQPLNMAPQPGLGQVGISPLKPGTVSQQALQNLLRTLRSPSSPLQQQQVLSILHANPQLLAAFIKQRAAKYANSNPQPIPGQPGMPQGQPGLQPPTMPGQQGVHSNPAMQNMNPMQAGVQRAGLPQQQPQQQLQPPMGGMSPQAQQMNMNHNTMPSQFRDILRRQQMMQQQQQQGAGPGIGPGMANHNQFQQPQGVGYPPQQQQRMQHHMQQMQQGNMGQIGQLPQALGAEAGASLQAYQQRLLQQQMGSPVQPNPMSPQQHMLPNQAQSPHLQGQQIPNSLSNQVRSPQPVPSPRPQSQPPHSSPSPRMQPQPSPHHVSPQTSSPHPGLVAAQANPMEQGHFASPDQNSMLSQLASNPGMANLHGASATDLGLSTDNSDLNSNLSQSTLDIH
Method in brief: as §1

T1 sequence (Q92793 whole entry): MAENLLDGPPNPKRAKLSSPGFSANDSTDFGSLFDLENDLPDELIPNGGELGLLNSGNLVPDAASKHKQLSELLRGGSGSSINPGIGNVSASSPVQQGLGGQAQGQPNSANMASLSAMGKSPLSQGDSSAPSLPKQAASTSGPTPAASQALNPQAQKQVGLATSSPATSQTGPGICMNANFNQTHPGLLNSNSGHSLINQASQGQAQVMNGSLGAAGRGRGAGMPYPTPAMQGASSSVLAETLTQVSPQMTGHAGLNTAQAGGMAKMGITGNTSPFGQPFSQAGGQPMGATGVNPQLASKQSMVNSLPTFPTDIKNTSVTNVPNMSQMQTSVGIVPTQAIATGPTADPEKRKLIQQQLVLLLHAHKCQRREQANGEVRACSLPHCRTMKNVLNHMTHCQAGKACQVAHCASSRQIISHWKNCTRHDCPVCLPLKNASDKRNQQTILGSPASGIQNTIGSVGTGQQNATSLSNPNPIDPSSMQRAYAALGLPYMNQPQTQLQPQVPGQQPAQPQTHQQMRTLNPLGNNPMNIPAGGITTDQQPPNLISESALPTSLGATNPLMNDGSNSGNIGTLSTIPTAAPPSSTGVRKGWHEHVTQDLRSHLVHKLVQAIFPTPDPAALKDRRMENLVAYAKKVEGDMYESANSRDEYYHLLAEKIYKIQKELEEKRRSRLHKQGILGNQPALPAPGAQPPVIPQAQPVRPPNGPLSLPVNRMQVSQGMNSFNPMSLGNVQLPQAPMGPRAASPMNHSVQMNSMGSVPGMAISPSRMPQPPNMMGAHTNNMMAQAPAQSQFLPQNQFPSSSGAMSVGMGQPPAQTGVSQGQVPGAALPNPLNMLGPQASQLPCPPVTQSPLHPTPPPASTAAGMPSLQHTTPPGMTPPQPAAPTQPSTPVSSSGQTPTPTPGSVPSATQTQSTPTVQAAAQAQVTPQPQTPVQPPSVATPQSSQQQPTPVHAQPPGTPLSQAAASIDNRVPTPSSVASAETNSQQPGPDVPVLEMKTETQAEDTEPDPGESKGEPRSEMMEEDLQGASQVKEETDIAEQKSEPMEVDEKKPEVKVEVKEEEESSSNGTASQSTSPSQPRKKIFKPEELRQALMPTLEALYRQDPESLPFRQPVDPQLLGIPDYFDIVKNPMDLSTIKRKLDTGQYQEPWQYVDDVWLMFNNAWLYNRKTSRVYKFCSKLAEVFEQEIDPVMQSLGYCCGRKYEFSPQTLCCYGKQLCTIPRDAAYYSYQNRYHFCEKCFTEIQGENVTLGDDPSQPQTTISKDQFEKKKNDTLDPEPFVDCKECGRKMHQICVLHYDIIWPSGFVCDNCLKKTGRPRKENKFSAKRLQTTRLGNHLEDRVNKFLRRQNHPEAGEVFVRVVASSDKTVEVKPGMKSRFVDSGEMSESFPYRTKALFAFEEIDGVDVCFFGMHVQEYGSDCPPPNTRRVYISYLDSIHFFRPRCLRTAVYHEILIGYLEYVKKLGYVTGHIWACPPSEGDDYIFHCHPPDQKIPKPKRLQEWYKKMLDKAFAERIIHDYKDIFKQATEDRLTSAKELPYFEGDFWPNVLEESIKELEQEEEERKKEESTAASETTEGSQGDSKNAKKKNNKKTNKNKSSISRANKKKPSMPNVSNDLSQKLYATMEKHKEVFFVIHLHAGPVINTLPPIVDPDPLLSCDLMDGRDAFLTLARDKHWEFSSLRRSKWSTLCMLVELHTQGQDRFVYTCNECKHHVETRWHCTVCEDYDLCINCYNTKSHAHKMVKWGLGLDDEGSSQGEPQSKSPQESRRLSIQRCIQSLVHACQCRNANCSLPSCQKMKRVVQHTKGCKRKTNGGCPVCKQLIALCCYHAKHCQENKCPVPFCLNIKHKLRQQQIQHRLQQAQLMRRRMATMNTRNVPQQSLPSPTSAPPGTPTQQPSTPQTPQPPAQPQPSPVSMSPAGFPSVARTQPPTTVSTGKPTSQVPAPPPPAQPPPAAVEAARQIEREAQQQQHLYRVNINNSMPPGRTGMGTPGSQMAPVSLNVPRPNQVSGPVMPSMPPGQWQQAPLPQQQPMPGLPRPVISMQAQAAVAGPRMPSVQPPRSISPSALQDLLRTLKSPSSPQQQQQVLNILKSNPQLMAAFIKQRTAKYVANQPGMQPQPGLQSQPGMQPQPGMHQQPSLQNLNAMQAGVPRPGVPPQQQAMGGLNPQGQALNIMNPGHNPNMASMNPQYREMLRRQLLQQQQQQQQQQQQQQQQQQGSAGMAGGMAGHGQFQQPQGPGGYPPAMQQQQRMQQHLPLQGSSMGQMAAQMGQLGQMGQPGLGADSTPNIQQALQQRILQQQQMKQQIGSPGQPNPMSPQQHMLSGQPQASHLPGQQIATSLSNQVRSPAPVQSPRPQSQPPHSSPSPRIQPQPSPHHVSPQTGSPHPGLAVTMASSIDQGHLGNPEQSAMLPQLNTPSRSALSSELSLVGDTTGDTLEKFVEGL

DC50 (CBP)	Dmax (CBP)	Dmax (p300)	DC50 (p300)	SMILES
> 1000 nM	< 20%	> 80%	< 1 nM	Cc1cc2c(-c3cccc4cc(-c5ccc(C(=O)NCC#Cc6ccc7occ(C8CCC(=O)NC8=O)c7c6)nc5)ncc34)nc(N3CC(O)C3)cc2n(C)c1=O (centres unmarked) [Example B66, N-(3-(3-(2,6-dioxopiperidin-3-yl)benzofuran-5-yl)prop-2-yn-1-yl)-5-(8-(7-(3-hydroxy-azetidin-1-yl)-1,3-dimethyl-2-oxo-1,2-dihydro-1,6-naphthyridin-5-yl)isoquinolin-3-yl) picolinamide]
> 1000 nM	< 20%	> 80%	1 to 9.9 nM	Cc1cc(-c2cccc3cc(-c4ccc(C(=O)NCC#Cc5ccc6occ(C7CCC(=O)NC7=O)c6c5)nc4)ncc23)cc2c1n(C)c(=O)n2C (centres unmarked) [Example A96, N-(3-(3-(2,6-dioxo-piperidin-3-yl)benzofuran-5-yl)prop-2-yn-1-yl)-5-(8-(1,3,7-trimethyl-2-oxo-2,3-dihydro-1H-benzo[d]imidazol-5-yl)isoquinolin-3-yl)picolinamide]
> 1000 nM	< 20%	> 80%	1 to 9.9 nM	Cc1cc(-c2ncc3c(n2)CCCN3c2nc(N3CC4CCC(C3)O4)cc3c2cc(C)c(=O)n3C)cnc1C(=O)NCC#Cc1ccc2occ(C3CCC(=O)NC3=O)c2c1 (centres unmarked) [Example B26, 5-(5-(7-(8-oxa-3-azabicyclo[3.2.1]octan-3-yl)-1,3-dimethyl-2-oxo-1,2-dihydro-1,6-naphthyridin-5-yl)-5,6,7,8-tetrahydropyrido [3,2-d]pyrimidin-2-yl)-N-(3-(3-(2,6-dioxopiperidin-3-yl)benzofuran-5-yl)prop-2-yn-1-yl)-3-methylpicolinamide]
> 1000 nM	< 20%	> 80%	1 to 9.9 nM	Cc1cc2c(N3CCCc4nc(-c5ccc(C(=O)NCC#Cc6cc7c(C8CCC(=O)NC8=O)cccc7o6)nc5)ncc43)cc(C3(F)CCOCC3)cc2n(C)c1=O (centres unmarked) [Example B82, N-(3-(4-(2,6-dioxopiperidin-3-yl)benzofuran-2-yl)prop-2-yn-1-yl)-5-(5-(7-(4-fluorotetrahydro-2H-pyran-4-yl)-1,3-dimethyl-2-oxo-1,2-dihydroquinolin-5-yl)-5,6,7,8-tetrahydropyrido [3,2-d]pyrimidin-2-yl)picolinamide]
> 1000 nM	< 20%	> 80%	1 to 9.9 nM	Cc1cc(-c2cc3cccc(-c4cc(F)c5c(c4)n(C)c(=O)n5C)c3cn2)cnc1C(=O)NCC#Cc1ccc2occ(C3CCC(=O)NC3=O)c2c1 (centres unmarked) [Example A66, N-(3-(3-(2,6-dioxopiperidin-3-yl)benzofuran-5-yl)prop-2-yn-1-yl)-5-(8-(7-fluoro-1,3-dimethyl-2-oxo-2,3-dihydro-1H-benzo[d]imidazol-5-yl)isoquinolin-3-yl)-3-methylpicolinamide]
> 1000 nM	< 20%	> 80%	1 to 9.9 nM	Cn1c(=O)n(C)c2c(N3CC4(COC4)C3)nc(-c3cccc4cc(-c5ccc(C(=O)NCC#Cc6ccc7occ(C8CCC(=O)NC8=O)c7c6)nc5)ncc34)cc21 (centres unmarked) [Example A136, 5-(8-(1,3-dimethyl-2-oxo-4-(2-oxa-6-azaspiro[3.3]heptan-6-yl)-2,3-dihydro-1H-imidazo[4,5-c]pyridin-6-yl)isoquinolin-3-yl)-N-(3-(3-(2,6-dioxopiperidin-3-yl)benzofuran-5-yl)prop-2-yn-1-yl)picolinamide]
> 1000 nM	< 20%	> 80%	1 to 9.9 nM	Cn1c(=O)n(C)c2cc(-c3cccc4cc(-c5ccc(C(=O)NCC#Cc6cc7c([C@@H]8CCC(=O)NC8=O)cccc7o6)nc5)ncc34)ccc21 [Example A171, (S)-5-(8-(1,3-dimethyl-2-oxo-2,3-dihydro-1H-benzo[d]imidazol-5-yl)isoquinolin-3-yl)-N-(3-(4-(2,6-dioxopiperidin-3-yl)benzofuran-2-yl)prop-2-yn-1-yl)picolinamide]
> 1000 nM	< 20%	60 to 79%	10 to 99 nM	Cc1cc(-c2ncc3c(n2)OCCN3c2ccc3c(c2)n(C)c(=O)n3C)cnc1C(=O)NCC#Cc1cc2c(C3CCC(=O)NC3=O)ccc(F)c2o1 (centres unmarked) [Example A203, 5-(5-(1,3-dimethyl-2-oxo-2,3-dihydro-1H-benzo[d]imidazol-5-yl)-6,7-dihydro-5H-pyrimido[4,5-b][1,4]oxazin-2-yl)-N-(3-(4-(2,6-dioxopiperidin-3-yl)-7-fluoro-benzofuran-2-yl)prop-2-yn-1-yl)-3-methylpicolinamide]
> 1000 nM	< 20%	> 80%	< 1 nM	Cc1cc2c(N3CCCc4nc(-c5ccc(C(=O)NCC#Cc6ccc7occ([C@H]8CCC(=O)NC8=O)c7c6)nc5)ncc43)cc(C3CCOCC3)cc2n(C)c1=O [Example B54, (R)-5-(5-(1,3-dimethyl-2-oxo-7-(tetrahydro-2H-pyran-4-yl)-1,2-dihydroquinolin-5-yl)-5,6,7,8-tetrahydropyrido[3,2-d]pyrimidin-2-yl)-N-(3-(3-(2,6-dioxopiperidin-3-yl)benzofuran-5-yl)prop-2-yn-1-yl)picolinamide]
> 1000 nM	< 20%	60 to 79%	1 to 9.9 nM	Cc1cc2c(N3CCOc4nc(-c5ccc(C(=O)NCC#Cc6cc7c(C8CCC(=O)NC8=O)cccc7o6)nc5)ncc43)cc(C3CCOCC3)nc2n(C)c1=O (centres unmarked) [Example B166, 5-(5-(6,8-dimethyl-7-oxo-2-(tetrahydro-2H-pyran-4-yl)-7,8-dihydro-1,8-naphthyridin-4-yl)-6,7-dihydro-5H-pyrimido[4,5-b][1,4]oxazin-2-yl)-N-(3-(4-(2,6-dioxopiperidin-3-yl)benzofuran-2-yl)prop-2-yn-1-yl) picolinamide]
100 to 999 nM	< 20%	> 80%	1 to 9.9 nM	Cc1cc(N2CCOc3nc(-c4ccc(C(=O)NCC#Cc5cc6c(C7CCC(=O)NC7=O)cccc6o5)nc4)ncc32)cc2c1n(C)c(=O)n2C (centres unmarked) [Example A199, N-(3-(4-(2,6-dioxo-piperidin-3-yl)benzofuran-2-yl)prop-2-yn-1-yl)-5-(5-(1,3,7-trimethyl-2-oxo-2,3-dihydro-1H-benzo[d]imidazol-5-yl)-6,7-dihydro-5H-pyrimido[4,5-b] [1,4]oxazin-2-yl)picolinamide]
> 1000 nM	< 20%	> 80%	1 to 9.9 nM	Cc1cc(-c2ncc3c(n2)OCCN3c2ccc3c(c2)n(C)c(=O)n3C)cnc1C(=O)NCC#Cc1cc2c(C3CCC(=O)NC3=O)cccc2o1 (centres unmarked) [Example A173, 5-(5-(1,3-dimethyl-2-oxo-2,3-dihydro-1H-benzo[d]imidazol-5-yl)-6,7-dihydro-5H-pyrimido[4,5-b][1,4]oxazin-2-yl)-N-(3-(4-(2,6-dioxopiperidin-3-yl)benzofuran-2-yl)prop-2-yn-1-yl)-3-methylpicolinamide]
> 1000 nM	< 20%	> 80%	1 to 9.9 nM	COc1nc(-c2cnc(C(=O)NCC#Cc3cc4c(C5CCC(=O)NC5=O)cccc4o3)c(C)c2)ncc1Nc1cc(C2CCOCC2)cc2c1cc(C)c(=O)n2C (centres unmarked) [Example B20, 5-(5-((1,3-dimethyl-2-oxo-7-(tetrahydro-2H-pyran-4-yl)-1,2-dihydroquinolin-5-yl)amino)-4-methoxypyrimidin-2-yl)-N-(3-(4-(2,6-dioxopiperidin-3-yl)benzofuran-2-yl)prop-2-yn-1-yl)-3-methylpicolinamide]
1 to 9.9 nM	60 to 79%	> 80%	< 1 nM	CC(C)c1cc(N2CCN(C)c3cc(-c4ccc(C(=O)NCC#Cc5cccc(NC6CCC(=O)NC6=O)c5)nc4)ncc32)cc2c1n(C)c(=O)n2C (centres unmarked) [Example A270, N-(3-(3-((2,6-dioxopiperidin-3-yl)amino)phenyl)prop-2-yn-1-yl)-5-(4-(7-isopropyl-1,3-dimethyl-2-oxo-2,3-dihydro-1H-benzo[d]imidazol-5-yl)-1-methyl-1,2,3,4-tetrahydro-pyrido[3,4-b]pyrazin-7-yl)picolinamide]
> 1000 nM	< 20%	> 80%	1 to 9.9 nM	Cc1ccc(-c2ccc3c(c2)n(C)c(=O)n3C)c2cnc(-c3ccc(C(=O)NCC#Cc4ccc5occ(C6CCC(=O)NC6=O)c5c4)nc3)cc12 (centres unmarked) [Example A72, 5-(8-(1,3-dimethyl-2-oxo-2,3-dihydro-1H-benzo[d]imidazol-5-yl)-5-methylisoquinolin-3-yl)-N-(3-(3-(2,6-dioxopiperidin-3-yl)benzofuran-5-yl)prop-2-yn-1-yl)picolinamide]
> 1000 nM	< 20%	> 80%	< 1 nM	Cc1cc(-c2ncc(N(C)c3cc(C4CCOCC4)c4c(c3)n(C)c(=O)n4C)cn2)cnc1C(=O)NCC#Cc1ccc2occ(C3CCC(=O)NC3=O)c2c1 (centres unmarked) [Example A53, 5-(5-((1,3-dimethyl-2-oxo-7-(tetrahydro-2H-pyran-4-yl)-2,3-dihydro-1H-benzo[d]imidazol-5-yl)(methyl)amino)pyrimidin-2-yl)-N-(3-(3-(2,6-dioxo-piperidin-3-yl)benzofuran-5-yl)prop-2-yn-1-yl)-3-methylpicolinamide]
10 to 99 nM	40 to 59%	> 80%	1 to 9.9 nM	CC(C)c1cc(-c2cccc3cc(-c4ccc(C(=O)NCC#Cc5ccc6cnn(C7CCC(=O)NC7=O)c6c5F)nc4)ncc23)cc2c1n(C)c(=O)n2C (centres unmarked) [Example A1, N-(3-(1-(2,6-Dioxopiperidin-3-yl)-7-fluoro-1H-indazol-6-yl)prop-2-yn-1-yl)-5-(8-(7-isopropyl-1,3-dimethyl-2-oxo-2,3-dihydro-1H-benzo[d]imidazol-5-yl)isoquinolin-3-yl)picolinamide]
